According to US20110105393A1, “METHODS FOR PROMOTING STEM CELL PROLIFERATION AND SURVIVAL” (priority 2007, published 2011):

Columns and labels:
NSC cultures = assay: Incidence of Tie-2 spikes in NSC cultures; type: cell-based; settings: for % of cells with at least one spike: NSC cultures; for spike number: thirty minutes after treatment
Protocol: A protrusion of the cell membrane was identified in neuronal stem cells (NSCs) when the Tie-2 receptor is concentrated. This can be visualized using antibodies that bind Tie-2. The protrusion was termed a spike. These spikes appear 30 minutes after treatment with pharmaceutical agents. […] increase spike number thirty minutes after treatment. […] Thus, a novel sub-cellular structure ahs been identified. These structures could regulate the responsiveness of cells to treatments.
Thus, a novel protrusion of the cell membrane in NSCs has been identified where the Tie-2 receptor is concentrated. This can be easily visualized using an antibody against Tie-2 that recognizes a particular epitope. […] Indeed, the spike is devoid of actin filaments or tubulin. The spikes can be detected within thirty minutes of contacting the cultures with an the factors. Thus, the spikes provide a rapid assay for the effect of pharmacologic agents.

6-OHDA lesioned rats = assay: Amphetamine-induced rotometry in the 6OHDA lesion model of Parkinson's disease; type: in vivo, rat; settings: for recovery in rotational bias: single intraventricular injection 2 weeks after lesion, measured over next 13 weeks, n=4-7 (FIG. 13a)
Protocol: Pharmacological treatments.
To investigate the clinical potential of this treatment approach, the compounds were used in an animal model of Parkinson's disease. Adult rats were lesioned by intra-striatal 6-OH-DA (Przedborski, S. et al., Neuroscience 67, 631-47, 1995). After two weeks, a single injection of the compounds was administered in the lateral ventricle ipsilateral to the lesion. Amphetamine-induced rotations were measured bi-weekly throughout the experiment. Thirteen weeks after treatment they were given a single injection of fluorogold in the striatum to label the […] dopaminergic projection.

adult mouse SVZ cultures = assay: Survival/generation of adult mouse SVZ NSC cultures (colony and cell number); type: cell-based
Protocol: Cell culture: E13.5 cortical embryonic mouse CNS stem cells were grown as previously described (Johe, et al., Genes Dev 10, 3129-40, 1996). Cells were expanded in serum-free DMEM/F12 medium with N2 supplement and FGF2 (20 ng/ml) for 5 days under 5% oxygen conditions and were re-plated fresh or from frozen stocks at 1,000-10,000 cells per cm^2. FGF2 was included throughout the studies, unless otherwise stated. Adult rat (3-6 months old) or adult mouse (2-4 months old) SVZ NSC cultures were grown in the same medium as the fetal cultures.
Pharmacological treatments: Unless otherwise stated, the following concentrations were used: Dll4 and Ang-2 (in vitro, 500 ng/ml; in vivo 12.5 μg as a single injection), FGF2 (in vitro, 20 ng/ml), JAK inhibitor (in vitro, 200 nM; in vivo, 250 ng as a single injection), insulin (in vitro, 25 μg/ml; in vivo, 40 μg as a single injection), DAPT (1 μM), Fluorogold (0.5 μg). For the survival assays, compounds were added daily and Notch ligands every 2 days for the duration of the experiment. For the effects of kinase inhibitors on Notch activation, cells were pre-incubated for 1 h prior to Notch activation.
Hes3 mRNA is present in fetal NSC cultures under conditions that support their self-renewal but CNTF-induced differentiation (Bonni, A. et al., Science 278, 477-83, 1997; Rajan & McKay, J Neurosci 18, 3620-9, 1998): downregulates Hes3 message (Androutsellis-Theotokis, A. et al., Nature 442, 823-6, 2006). Knockout studies have shown a role of Hes3 in self-renewal (Hatakeyama, J. et al., Development 131, 5539-50, 2004). It was investigated if Hes3 mediates stem cell functions in vitro to assess its use as a functional NSC marker. Fetal (E13.5) cortical tissue was dissociated and magnetic sorting was used to isolate a cell population that expressed AC133, an established marker of NSCs (Uchida, N. et al., Proc Natl Acad Sci USA 97, 14720-5, 2000). Sorted (AC133+) cells expressed Hes3 and Sox2, another established NSC marker (Zappone, M. V. et al., Development 127, 2367-82, 2000). […] To investigate if Hes3 is a mediator of pro-survival signals for NSCs, adult mouse SVZ cultures (which respond strongly to pro-survival signals) were treated with insulin, Dll4, and a combination of the two.

STAT3-Ser727 = STAT3-Ser727 phosphorylation in NSC cultures; type: cell-based, mouse
Protocol: Cell culture: E13.5 cortical embryonic mouse CNS stem cells were grown as previously described (Johe, et al., Genes Dev 10, 3129-40, 1996). Cells were expanded in serum-free DMEM/F12 medium with N2 supplement and FGF2 (20 ng/ml) for 5 days under 5% oxygen conditions and were re-plated fresh or from frozen stocks at 1,000-10,000 cells per cm^2. FGF2 was included throughout the studies, unless otherwise stated. […] Pharmacological treatments: Unless otherwise stated, the following concentrations were used: Dll4 and Ang-2 (in vitro, 500 ng/ml; in vivo 12.5 μg as a single injection), FGF2 (in vitro, 20 ng/ml), JAK inhibitor (in vitro, 200 nM; in vivo, 250 ng as a single injection), insulin (in vitro, 25 μg/ml; in vivo, 40 μg as a single injection), DAPT (1 μM), Fluorogold (0.5 μg). For the survival assays, compounds were added daily and Notch ligands every 2 days for the duration of the experiment. For the effects of kinase inhibitors on Notch activation, cells were pre-incubated for 1 h prior to Notch activation. […] Activation of the Notch receptor by addition of insulin or Dll4 was inhibited by DAPT, a γ-secretase inhibitor that blocks Notch cleavage. […] Insulin maintained STAT[…]727 phosphorylation levels, and acutely (1-h) induced it following a 16-h insulin withdrawal phase (FIG. 1c). […] Fetal NSCs in culture express Ang-1, and treatment (2 days) with Dll4 maintained it whereas CNTF reduced it. Ang-2 expression was maintained under these conditions. […] Ang-2 induced mTOR and STAT3-S727 phosphorylation, unlike Ang-1 (FIG. 2a). Ang-1, however, induced Akt phosphorylation.

[1] = wild-type adult mouse SVZ cultures

| Substance | % of cells with at least one spike (NSC cultures) | spike number (NSC cultures) | amphetamine-induced rotations (behavioural recovery) (6-OHDA lesioned rats; single intra-ventricular injection 2 weeks after 6-OHDA lesion (FIG. 6a)) | recovery in rotational bias (6-OHDA lesioned rats) | colony number and overall cell number (adult mouse SVZ cultures; cells from Hes3 null mice) | colony number and overall cell number (adult mouse SVZ cultures; [1]) | STAT3-Ser727 phosphorylation (STAT3-Ser727; acute (1-h) addition following a 16-h insulin withdrawal) | STAT3-Ser727 phosphorylation levels (STAT3-Ser727; continued presence in NSC culture) | STAT3-S727 phosphorylation (STAT3-Ser727; NSC cultures, 0.5 μg/ml (FIG. 2a)) |
| --- | --- | --- | --- | --- | --- | --- | --- | --- | --- |
| Dll4: Notch ligand Delta-like 4; mouse Dll4 (1389-D4) from R&D | 2.1% | increase | long-lasting behavioural recovery | partial recovery | moderate (but significant) benefits | great increase |  |  |  |
| insulin: insulin (Sigma, 19278), growth factor |  |  |  |  | moderate (but significant) benefits | great increase | induced | maintained |  |
| Ang-2: human angiopoietin-2 (623-AN) from R&D; antagonist for angiopoietin-1 at Tie2 | 2.5% | increase |  | complete and stable recovery |  |  |  |  | induced |
